Assays:
[1] = target: T1, Peroxisome proliferator-activated receptor alpha (Homo sapiens) (UniProt Q07869); assay: Agonist activity at PPAR-alpha (unknown origin) expressed in CV-1 cells co-transfected with tk-PPRE-luciferase vector at 10 uM after 24 hrs by transactivation assay relative to GW7647; format: cell-based
T1 sequence (whole entry): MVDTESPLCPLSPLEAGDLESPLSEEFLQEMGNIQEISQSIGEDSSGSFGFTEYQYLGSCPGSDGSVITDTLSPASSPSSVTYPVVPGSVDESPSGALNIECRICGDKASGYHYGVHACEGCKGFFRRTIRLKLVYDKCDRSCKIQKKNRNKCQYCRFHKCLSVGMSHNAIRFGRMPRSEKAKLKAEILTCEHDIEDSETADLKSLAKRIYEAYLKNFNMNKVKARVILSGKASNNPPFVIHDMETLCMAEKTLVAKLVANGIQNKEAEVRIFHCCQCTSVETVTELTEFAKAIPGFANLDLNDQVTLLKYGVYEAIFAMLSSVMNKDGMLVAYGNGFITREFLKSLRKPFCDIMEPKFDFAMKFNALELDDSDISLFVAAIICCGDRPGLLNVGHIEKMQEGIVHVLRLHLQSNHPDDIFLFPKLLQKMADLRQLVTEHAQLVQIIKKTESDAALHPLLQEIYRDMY

[2] = target: T2, Peroxisome proliferator-activated receptor gamma (Homo sapiens) (UniProt P37231); assay: Agonist activity at PPAR-gamma (unknown origin) expressed in CV-1 cells co-transfected with tk-PPRE-luciferase vector at 10 uM after 24 hrs by transactivation assay relative to rosiglitazone; format: cell-based
T2 sequence (whole entry): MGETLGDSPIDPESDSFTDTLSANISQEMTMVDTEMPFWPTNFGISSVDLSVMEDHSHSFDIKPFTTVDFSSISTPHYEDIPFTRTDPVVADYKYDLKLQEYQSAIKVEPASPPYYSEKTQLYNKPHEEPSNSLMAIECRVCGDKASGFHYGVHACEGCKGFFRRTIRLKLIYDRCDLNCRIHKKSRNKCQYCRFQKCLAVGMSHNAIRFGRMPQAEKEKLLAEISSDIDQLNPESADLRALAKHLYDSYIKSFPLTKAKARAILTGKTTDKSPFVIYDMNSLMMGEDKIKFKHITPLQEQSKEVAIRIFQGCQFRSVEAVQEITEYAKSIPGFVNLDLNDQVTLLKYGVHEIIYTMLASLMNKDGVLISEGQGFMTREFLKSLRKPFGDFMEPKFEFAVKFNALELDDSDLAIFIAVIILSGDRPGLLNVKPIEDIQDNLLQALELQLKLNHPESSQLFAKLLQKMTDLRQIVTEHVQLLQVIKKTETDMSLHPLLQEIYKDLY

[3] = target: T3, Peroxisome proliferator-activated receptor delta (Homo sapiens) (UniProt Q03181); assay: Agonist activity at PPAR-delta (unknown origin) expressed in HEK293t cells co-transfected with tk-PPRE-luciferase vector at 10 uM after 24 hrs by transactivation assay relative to GW0742; format: cell-based; settings: HEK-293T
T3 sequence (whole entry): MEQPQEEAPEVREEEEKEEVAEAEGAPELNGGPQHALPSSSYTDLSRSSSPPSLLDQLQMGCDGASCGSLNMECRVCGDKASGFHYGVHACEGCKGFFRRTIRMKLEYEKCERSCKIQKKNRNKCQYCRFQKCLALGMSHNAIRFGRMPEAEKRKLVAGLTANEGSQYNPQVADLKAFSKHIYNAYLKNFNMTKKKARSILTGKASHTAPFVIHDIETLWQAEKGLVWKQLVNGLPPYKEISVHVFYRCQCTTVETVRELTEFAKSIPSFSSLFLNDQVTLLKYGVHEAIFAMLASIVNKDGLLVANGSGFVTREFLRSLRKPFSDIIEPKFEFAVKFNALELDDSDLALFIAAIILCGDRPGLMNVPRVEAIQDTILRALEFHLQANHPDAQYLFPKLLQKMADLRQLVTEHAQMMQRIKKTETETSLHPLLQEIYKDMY

[4] = Retention time of the compound by HPLC analysis; format: physicochemical

Row | Compound | Emax [1] | Emax [2] | Emax [3] | Retention_time [4]
1 | Cc1ccc(COc2cccc(OCCOc3ccc4[nH]cc(CC(=O)O)c4c3)c2)cc1 | 66.7% | 114% | 76.6% | 7.375 min
2 | CC(C)=CCn1cc(CC(=O)O)c2cc(OCCCOc3cccc(OCc4ccc(Cl)cc4)c3)ccc21 | 37.9% | 120% | 65.2% | 30.169 min
3 | Cc1cccc(OCCOc2ccc3[nH]cc(CC(=O)O)c3c2)c1 | 21.8% | 31.3% | 27.9% | 4.444 min
4 | O=C(O)Cc1c[nH]c2ccc(OCCOc3cccc(OCc4ccc(Cl)cc4)c3)cc12 | 42.8% | 79.6% | 79% | 7.623 min
5 | O=C(O)Cc1c[nH]c2ccc(OCCCOc3cccc(OCc4ccc(Cl)cc4)c3)cc12 | 56.7% | 104% | 63.7% | 9.64 min
6 | C=CCn1cc(CC(=O)O)c2cc(OCCCOc3cccc(OCc4ccc(Cl)cc4)c3)ccc21 | 35.8% | 104% | 71.1% | 15.057 min
7 | O=C(O)Cc1c[nH]c2ccc(OCCCOc3ccc(OCc4ccc(Cl)cc4)cc3)cc12 | 18.9% | 99.4% | 89.5% | 9.166 min
8 | O=C(O)Cc1c[nH]c2ccc(OCCCOc3cccc(OCc4ccc(C(F)(F)F)cc4)c3)cc12 | 28.2% | 100% | 71.9% | 9.707 min
9 | O=C(O)Cc1c[nH]c2ccc(OCCCOc3cccc(OCc4ccc(F)cc4)c3)cc12 | 25.8% | 66.9% | 32% | 7.106 min
10 | O=C(O)Cc1c[nH]c2cc(OCCCOc3cccc(OCc4ccc(Cl)cc4)c3)ccc12 | 33% | 81.8% | 32.8% | 8.836 min
11 | COc1ccc(Oc2cccc(OCCCOc3ccc4[nH]cc(CC(=O)O)c4c3)c2)cc1 | 45% | 89.7% | 25.6% | 6.53 min
12 | O=C(O)Cc1c[nH]c2ccc(OCCCOc3cccc(OCc4ccc(Cl)cc4Cl)c3)cc12 | 59.5% | 102% | 85.3% | –
13 | O=C(O)Cc1c[nH]c2ccc(OCCCOc3cccc(OCc4ccccc4)c3)cc12 | 22.6% | 73.1% | 21.7% | 6.379 min
14 | O=C(O)Cc1cn(Cc2ccccc2)c2ccc(OCCCOc3cccc(OCc4ccc(Cl)cc4Cl)c3)cc12 | 18.7% | 102% | 44.2% | –

Continued, values first:

Row | Emax [1] | Emax [2] | Emax [3] | Retention_time [4] | Compound
15 | 33.3% | 119% | 69.1% | 23.472 min | Cc1ccc(Oc2cccc(OCCCOc3ccc4c(c3)c(CC(=O)O)cn4Cc3ccccc3)c2)cc1
16 | 30.4% | 94.6% | 95.5% | 14.199 min | O=C(O)Cc1cn(Cc2ccccc2)c2ccc(OCCCOc3cccc(OCc4ccccc4)c3)cc12
17 | 19% | 83.7% | 94.7% | 22.989 min | O=C(O)Cc1cn(Cc2ccccc2)c2ccc(OCCCOc3ccc(OCc4ccc(Cl)cc4)cc3)cc12
18 | 34.8% | 122% | 84.8% | 18.802 min | O=C(O)Cc1cn(Cc2ccccc2)c2cc(OCCCOc3cccc(OCc4ccc(Cl)cc4)c3)ccc12
19 | 40.7% | 81.2% | 106% | 17.1 min | O=C(O)Cc1cn(Cc2ccccc2)c2ccc(OCCOc3cccc(OCc4ccc(Cl)cc4)c3)cc12
20 | 41.2% | 73.4% | 35.2% | 7.257 min | Cc1ccc(COc2ccccc2OCCCOc2ccc3[nH]cc(CC(=O)O)c3c2)cc1
21 | 26.7% | 75.1% | 68.9% | 14.49 min | Cc1ccc(COc2ccccc2OCCCOc2ccc3c(c2)c(CC(=O)O)cn3Cc2ccccc2)cc1

From ChEMBL document CHEMBL3596146, “Design, synthesis, and biological evaluation of a series of alkoxy-3-indolylacetic acids as peroxisome proliferator-activated receptor γ/δ agonists” (Bioorg Med Chem, 2015)
